The text below walks through data of patent US11730731B2 (INVENTAGE LAB INC., priority 2021, dated 2023).

Common to all, as to format: in vivo, mouse
In assay [1] the test system is murine collagen-induced arthritis (CIA). Description: Clinical evaluation of arthritis activity (clinical arthritis index, incidence) in collagen-induced arthritis mice. The conditions noted are these: for CAI Mean: naltrexone (Revia Tablet) 10 mg/kg oral once/day. Details: CAI-AUC Mean / Incidence-AUC Mean: unit not given here. As to the method:
As a model of murine collagen-induced arthritis (CIA), 6 to 10 week-old male mice of DBA/1 J strain was prepared. […] The number of experimental animals per cage was kept under 6, and a cage was exchanged twice a week and feed was supplied.
A 2 mg/mL collagen solution was prepared by dissolving bovine type 2 collagen in 10 mM acetic acid. After emulsifying by mixing 2 mg/mL of Complete Freund's adjuvant and collagen solution in a 1:1 (v/v) ratio, it was intradermally injected into the tail of mouse at a dose of 100 μl/animal (first immunization, day 0). After emulsifying by mixing incomplete Freund's adjuvant […] and collagen solution in a 1:1 (v/v) ratio on the 21th day, it was intradermally injected into the tail of mouse at a dose of 100 μl/animal (the secondary immunization, on the 21th day). After that, mice were randomly divided into groups and assigned to experimental groups.
The refrigerated test substance was standed at room temperature 1 hour before administration and dissolved in 0.15 mL of water for injection. 0.15 mL of the test substance was filled using a syringe with a 21 G needle. The needle was changed to 23 G within 2 minutes after filling and the mice were injected.
After administration of the test substance to the collagen-induced arthritis mouse model, the occurrence and level of inflammation were regularly observed from the date of group separation to the end of the experiment (the 41th day). Inflammation level was given a score of 0 to 4 for each paw according to the criteria in Table 4 below, and the sum was used as a clinical arthritis index (CAI).
When the clinical index of each paw was 2 score or higher, it was determined that arthritis occurred, and the incidence was defined as 100% when arthritis occurred in […].
After administration of the test substance to the collagen-induced arthritis mouse model, the occurrence and level of inflammation were regularly observed from the date of group separation to the end date of the experiment (the 41th day). Inflammation level was given a score of 0 to 4 for each paw according to the criteria in Table 4 above, and the sum was used as a clinical arthritis index (CAI).
After administration of the test substance to the collagen-induced arthritis mouse model, the occurrence and level of inflammation were regularly observed from the date of group separation to the end of the experiment (the 41th day). Inflammation level was given a score of 0 to 4 for each paw according to the criteria in Table 4 above, and the sum was used as a clinical arthritis index (CAI).

The test system is the same in assay [2]. Put plainly: Histological estimation of hind paw tissue, hematoxylin/eosin staining, CIA mice. Details: scale not given here. To be noted: day 41. As to the method:
(§1) Mice were sacrificed on the 41th day, which is the end of the experiment, and the tissues of the hind paws were stained with hematoxylin/eosin. Hematoxylin/eosin staining was used to evaluate the activity of inflammation in the arthritic tissue, and toluidine blue staining was performed to confirm the histological therapeutic effect on cartilage destruction.
The hind paw tissue of the mouse was stained with hematoxylin/eosin, and 4 sites (100 magnification) for each tissue were photographed. Two or more investigators evaluated the items of synovial hyperplasia, pannus formation, cartilage destruction, and bone erosion for hematoxylin/eosin staining. The scoring criteria for each item were described in Table 7, and the average score of 4 sites was calculated as the score of each tissue.
Hematoxylin/eosin staining was performed and evaluated in the same manner as in Example 2.3. (1) above, and the score for items of synovial hyperplasia, pannus formation, cartilage destruction, and bone erosion was calculated by scoring each tissue as the average of the score of 4 sites based on Table 7 above.

For assay [3] the test system is unchanged. Description: Histological estimation of hind paw tissue, toluidine blue staining, CIA mice. Details: scale not given here. The conditions noted are these: day 41. As to the method: as §1
The hind paw tissue of the mouse was stained with toluidine blue, and 4 sites (100 magnification) for each tissue were photographed. Two or more investigators evaluated the items of matrix staining, surface regularity, and cartilage thickness. The scoring criteria for each item was described in Table 9, and the average score of 4 sites was calculated as the score of each
In the same manner as in Example 2.3. (2), the hind paw tissue of the mouse was stained with toluidine blue, and items such as photographing and matrix staining, surface regularity, and cartilage thickness were evaluated. The scoring criteria for each item were described in Table 9, and the average score of 4 sites was calculated as the score of each tissue.
In the same manner as in Example 2.3. (2) above, the hind paw tissue of the mouse was stained with toluidine blue, and items such as photographing and matrix staining, surface regularity, and cartilage thickness were evaluated. The scoring criteria for each item is described in Table 9, and the average score of 4 sites was calculated as the score of each tissue.

Setting [4] is: Example 2, CIA mouse, methotrexate 1 mg/kg ip twice/week, naltrexone 10 mg/kg oral once/day, naltrexone DDS 3 mg/mouse sc once on day 23.
Setting [5] is: Example 2, CIA mouse, methotrexate 1 mg/kg ip twice/week, naltrexone DDS 3 mg/mouse sc once on day 23.
Where [6] appears, read: Example 3, CIA mouse, MTX 1 mg/kg ip twice/week, Xeljanz 10 mg/kg oral once/day, MTX 1 mg/kg + Q-DDS 3 mg/mouse.
The mark [7] stands for this setting: Example 2, CIA mouse, MTX 1 mg/kg, naltrexone 10 mg/kg oral, naltrexone DDS 3 mg/mouse.

The structures appear in SMILES notation.

In the case of `CN(Cc1cnc2nc(N)nc(N)c2n1)c1ccc(C(=O)N[C@@H](CCC(=O)O)C(=O)O)cc1` [Methotrexate, methotrexate], in assay [1] (setting [4]), the “CAI-AUC Mean” value worked out at 46.6, the “Incidence (%) Mean” value is reported as 20.83% and the “Incidence-AUC Mean” value came out at 185.4. Further, the “CAI Mean” value in assay [1] (setting [5]) is reported as 5.92. In addition, in assay [1] (setting [6]), the “CAI (D41) Mean” value is given as 6.35, the “CAI-AUC Mean” value was 71.20, the “Incidence (%) Mean” value amounted to 30.0% and the “Incidence-AUC Mean” value is 170.0. Further, in assay [2] (setting [7]), the “Bone erosion score Mean (hematoxylin/eosin)” value was 0.08, the “Cartilage destruction score Mean (hematoxylin/eosin)” value is reported as 0.50, the “Pannus formation score Mean (hematoxylin/eosin)” value was 0.14 and the “Synovial hyperplasia score Mean (hematoxylin/eosin)” value is listed as 0.91. Further, in assay [2] (setting [6]), the “Bone erosion score Mean (hematoxylin/eosin)” value is 0.92, the “Cartilage destruction score Mean (hematoxylin/eosin)” value is 1.02, the “Pannus formation score Mean (hematoxylin/eosin)” value is on record as 0.92 and the “Synovial hyperplasia score Mean (hematoxylin/eosin)” value is 1.38. Besides, in assay [3] (setting [7]), the “Cartilage thickness score Mean (toluidine blue)” value (shortened to “Cartilage thickness score Mean”) is listed as 0.11, the “Matrix staining score Mean (toluidine blue)” value (“Matrix staining score Mean” below) is listed as 0.61 and the “Surface regularity score Mean (toluidine blue)” value (from here on “Surface regularity score Mean”) is 0.34. Besides, in assay [3] (setting [6]), the “Cartilage thickness score Mean” value is 0.38, the “Matrix staining score Mean” value was 1.15 and the “Surface regularity score Mean” value is reported as 1.02.

As to `O=C1CC[C@@]2(O)[C@H]3Cc4ccc(O)c5c4[C@@]2(CCN3CC2CC2)[C@H]1O5` [Naltrexone, 17-(cyclopropylmethyl)-4,5α-epoxy-3,14-dihydroxymorphinan-6-one], in assay [1] (setting [4]), the “Incidence (%) Mean” value was determined as 41.67%. Besides, in assay [1] (setting [5]), the “CAI Mean” value turned out to be 8.25. In assay [2] (setting [7]), the “Bone erosion score Mean (hematoxylin/eosin)” value is listed as 0.58, the “Cartilage destruction score Mean (hematoxylin/eosin)” value is listed as 0.98, the “Pannus formation score Mean (hematoxylin/eosin)” value is on record as 0.58 and the “Synovial hyperplasia score Mean (hematoxylin/eosin)” value is listed as 1.27. For the same compound, in assay [3] (setting [7]), the “Cartilage thickness score Mean” value was 0.39, the “Matrix staining score Mean” value is recorded as 0.92 and the “Surface regularity score Mean” value was 0.80.

In the case of `C[C@@H]1CCN(C(=O)CC#N)C[C@@H]1N(C)c1ncnc2[nH]ccc12` [Xeljanz ®, Tofacitinib], in assay [1] (setting [6]), the “CAI (D41) Mean” value worked out at 6.25, the “CAI-AUC Mean” value worked out at 74.50, the “Incidence (%) Mean” value was found to be 27.5% and the “Incidence-AUC Mean” value turned out to be 263.8. In addition, in assay [2] (setting [6]), the “Bone erosion score Mean (hematoxylin/eosin)” value was 1.13, the “Cartilage destruction score Mean (hematoxylin/eosin)” value is on record as 1.38, the “Pannus formation score Mean (hematoxylin/eosin)” value is 1.13 and the “Synovial hyperplasia score Mean (hematoxylin/eosin)” value is 1.56. In addition, in assay [3] (setting [6]), the “Cartilage thickness score Mean” value is 0.56, the “Matrix staining score Mean” value is 1.42 and the “Surface regularity score Mean” value is recorded as 1.13.
